Assay results: PubChem BioAssay (NCI)
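48-hour exposure; five concentrations; linearly interpolated endpoints. Here, GI50 denotes the concentration required for 50% inhibition of growth. TGI is the concentration that stops growth completely.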

Assays:
Assay in all cases: NCI anticancer screen, dose series, 48 h
HOP-62 NSCLC = system: HOP-62 NSCLC
HCT-15 colon = system: HCT-15 colon
UO-31 renal = system: UO-31 renal
SNB-19 CNS = system: SNB-19 CNS
MCF7 breast = system: MCF7 breast
A498 renal = system: A498 renal
HL-60(TB) leukemia = system: HL-60(TB) leukemia
OVCAR-5 ovarian = system: OVCAR-5 ovarian
OVCAR-4 ovarian = system: OVCAR-4 ovarian
DU-145 prostate = system: DU-145 prostate
MDA-MB-231 breast = system: MDA-MB-231 breast

C[C@]12CCc3sc(Nc4ccc(O)cc4)nc3C1=CC[C@@H]1[C@@H]2CC[C@]2(C)C(=O)CC[C@@H]12
GI50 (HOP-62 NSCLC): 3.28 µM | TGI (HOP-62 NSCLC): 12.6 µM | GI50 (HCT-15 colon): 1.66 µM | TGI (HCT-15 colon): 4.4 µM | GI50 (UO-31 renal): 1.54 µM | TGI (UO-31 renal): 2.9 µM | GI50 (SNB-19 CNS): 10.9 µM | TGI (SNB-19 CNS): > 100 µM | GI50 (MCF7 breast): 1.66 µM | TGI (MCF7 breast): 4.26 µM | GI50 (A498 renal): 14.2 µM | TGI (A498 renal): 80.6 µM | GI50 (HL-60(TB) leukemia): 2.57 µM | TGI (HL-60(TB) leukemia): 7.27 µM | GI50 (OVCAR-5 ovarian): 3.91 µM | TGI (OVCAR-5 ovarian): > 100 µM

COC(=O)[C@@]12C(=O)C(C)C(=O)[C@]1(C)C(C)=C[C@H]1[C@]3(C=O)CC[C@H](OC(C)=O)C(C)(C)[C@H]3CC[C@@]12C (some centres not stated)
TGI (HOP-62 NSCLC): > 100 µM | TGI (OVCAR-4 ovarian): > 100 µM | TGI (HCT-15 colon): > 100 µM | TGI (DU-145 prostate): > 100 µM | TGI (UO-31 renal): > 100 µM | TGI (SNB-19 CNS): > 100 µM | TGI (A498 renal): > 100 µM | TGI (HL-60(TB) leukemia): 52.3 µM | TGI (OVCAR-5 ovarian): > 100 µM | TGI (MDA-MB-231 breast): > 100 µM

O=C(Cc1ccccc1)NNc1nc(NNC(=O)c2ccncc2)nc(Nc2cccc(Cl)c2)n1
TGI (HOP-62 NSCLC): > 10 µM | TGI (OVCAR-4 ovarian): > 10 µM | TGI (HCT-15 colon): > 10 µM | TGI (DU-145 prostate): > 10 µM | TGI (MCF7 breast): > 10 µM | TGI (HL-60(TB) leukemia): > 10 µM | TGI (MDA-MB-231 breast): > 10 µM

CN(C)CCn1c(=O)c2ccc3c4c(nn3CCN(C)C)c3cc(O)ccc3n(c1=O)c24
TGI (HOP-62 NSCLC): 0.566 µM | TGI (OVCAR-4 ovarian): 0.392 µM | TGI (HCT-15 colon): 3.36 µM | TGI (UO-31 renal): 0.675 µM | TGI (SNB-19 CNS): 1 µM | TGI (MCF7 breast): 0.392 µM | TGI (A498 renal): 0.83 µM | TGI (HL-60(TB) leukemia): 1.96 µM | TGI (OVCAR-5 ovarian): 1.26 µM | TGI (MDA-MB-231 breast): 0.727 µM

O=C(CCCN1CCC2(CC1)CC(=O)N(N1CCCCCC1)C2=O)c1ccc(F)cc1
TGI (HOP-62 NSCLC): > 100 µM | TGI (OVCAR-4 ovarian): > 100 µM | TGI (HCT-15 colon): > 100 µM | TGI (DU-145 prostate): > 100 µM | TGI (UO-31 renal): > 100 µM | TGI (MCF7 breast): > 100 µM | TGI (A498 renal): > 100 µM | TGI (HL-60(TB) leukemia): > 100 µM | TGI (OVCAR-5 ovarian): > 100 µM | TGI (MDA-MB-231 breast): > 100 µM

CC(C)(C)OC(=O)N(CCNS(=O)(=O)c1cccc2cnccc12)CCC(=O)ON1C(=O)CCC1=O
TGI (HOP-62 NSCLC): > 100 µM | TGI (OVCAR-4 ovarian): > 100 µM | TGI (HCT-15 colon): > 100 µM | TGI (DU-145 prostate): > 100 µM | TGI (UO-31 renal): > 100 µM | TGI (SNB-19 CNS): > 100 µM | TGI (MCF7 breast): > 100 µM | TGI (OVCAR-5 ovarian): > 100 µM | TGI (MDA-MB-231 breast): > 100 µM

O=C(O)CC1(CC(=O)O)Nc2ccccc2SC1=O
TGI (HOP-62 NSCLC): > 100 µM | TGI (OVCAR-4 ovarian): > 100 µM | TGI (HCT-15 colon): > 100 µM | TGI (DU-145 prostate): > 100 µM | TGI (UO-31 renal): > 100 µM | TGI (SNB-19 CNS): > 100 µM | TGI (MCF7 breast): > 100 µM | TGI (A498 renal): > 100 µM | TGI (OVCAR-5 ovarian): > 100 µM | TGI (MDA-MB-231 breast): > 100 µM

C/C(=N\NC(=S)NC(C)(C)C)c1ccccn1
TGI (HOP-62 NSCLC): > 100 µM | TGI (OVCAR-4 ovarian): > 100 µM | TGI (HCT-15 colon): > 100 µM | TGI (DU-145 prostate): > 100 µM | TGI (UO-31 renal): 14.3 µM | TGI (SNB-19 CNS): > 100 µM | TGI (MCF7 breast): > 100 µM | TGI (A498 renal): > 39.6 µM | TGI (MDA-MB-231 breast): > 100 µM

O=C(/C=C/c1ccc(Cl)cc1)c1cccs1
TGI (HOP-62 NSCLC): 89.8 µM | TGI (HCT-15 colon): 49.9 µM | TGI (DU-145 prostate): > 100 µM | TGI (UO-31 renal): 31.9 µM | TGI (SNB-19 CNS): 33.4 µM | TGI (MCF7 breast): 15.8 µM | TGI (A498 renal): 56 µM | TGI (HL-60(TB) leukemia): 29.8 µM | TGI (MDA-MB-231 breast): 39.9 µM

COc1cccc2c1C(=O)c1ccc3cc(CCl)cc(O)c3c1C2=O
TGI (HOP-62 NSCLC): 1.08 µM | TGI (HCT-15 colon): 1.13 µM | TGI (DU-145 prostate): 1.78 µM | TGI (UO-31 renal): 1.14 µM | TGI (SNB-19 CNS): 1.86 µM | TGI (MCF7 breast): 1.31 µM | TGI (A498 renal): 1.7 µM | TGI (HL-60(TB) leukemia): 0.551 µM | TGI (OVCAR-5 ovarian): 1.71 µM | TGI (MDA-MB-231 breast): 0.35 µM

O=C1/C(=C/c2c(Cl)[nH]c3ccccc23)c2ccccc2N1c1ccccc1
TGI (HOP-62 NSCLC): 26.1 µM | TGI (HCT-15 colon): 15 µM | TGI (DU-145 prostate): 32.9 µM | TGI (UO-31 renal): 37.1 µM | TGI (SNB-19 CNS): > 100 µM | TGI (MCF7 breast): 30.9 µM | TGI (A498 renal): 40.8 µM | TGI (HL-60(TB) leukemia): 13.9 µM | TGI (OVCAR-5 ovarian): 81.9 µM | TGI (MDA-MB-231 breast): 29.6 µM

CC1(C)OC(=O)C2(O1)C(=O)C1CCCCC12 (configuration not stated)
TGI (HOP-62 NSCLC): > 100 µM | TGI (OVCAR-4 ovarian): > 100 µM | TGI (HCT-15 colon): > 100 µM | TGI (DU-145 prostate): > 100 µM | TGI (UO-31 renal): > 100 µM | TGI (SNB-19 CNS): > 100 µM | TGI (MCF7 breast): > 100 µM | TGI (A498 renal): > 100 µM | TGI (OVCAR-5 ovarian): > 100 µM | TGI (MDA-MB-231 breast): > 100 µM

Cc1ccc2c(C)c3ccc4ccccc4c3c[n+]2c1
TGI (HOP-62 NSCLC): 51.2 µM | TGI (OVCAR-4 ovarian): 45.4 µM | TGI (HCT-15 colon): > 100 µM | TGI (UO-31 renal): > 100 µM | TGI (SNB-19 CNS): 40.8 µM | TGI (A498 renal): > 100 µM | TGI (HL-60(TB) leukemia): > 100 µM | TGI (OVCAR-5 ovarian): > 100 µM

c1ccc(C2OCCO2)c(OCCOc2cc(OCCOc3ccccc3C3OCCO3)c(OCCOc3ccccc3C3OCCO3)cc2OCCOc2ccccc2C2OCCO2)c1
TGI (HOP-62 NSCLC): 28.6 µM | TGI (OVCAR-4 ovarian): 30.2 µM | TGI (HCT-15 colon): > 100 µM | TGI (UO-31 renal): 53.2 µM | TGI (A498 renal): 35.4 µM | TGI (HL-60(TB) leukemia): > 100 µM | TGI (OVCAR-5 ovarian): > 100 µM

Cn1c(=O)c2c(ncn2CCCCOc2ccc3c(c2)[n+]([O-])nc(N)[n+]3[O-])n(C)c1=O
TGI (HOP-62 NSCLC): > 100 µM | TGI (OVCAR-4 ovarian): > 100 µM | TGI (HCT-15 colon): > 100 µM | TGI (DU-145 prostate): > 100 µM | TGI (UO-31 renal): > 100 µM | TGI (SNB-19 CNS): > 100 µM | TGI (MCF7 breast): > 100 µM | TGI (HL-60(TB) leukemia): > 100 µM | TGI (MDA-MB-231 breast): > 100 µM

Cc1ccc(S(=O)(=O)Nn2c(S)c(C#N)c(-c3ccc([N+](=O)[O-])cc3)c(C#N)c2=O)cc1
TGI (HOP-62 NSCLC): > 100 µM | TGI (OVCAR-4 ovarian): > 100 µM | TGI (HCT-15 colon): 49.7 µM | TGI (MCF7 breast): > 100 µM | TGI (A498 renal): > 100 µM | TGI (OVCAR-5 ovarian): > 100 µM | TGI (MDA-MB-231 breast): 36.5 µM

COC(=O)C1(Cc2ccc3c(c2)CCC3)Cc2ccc3c(c2C1)CCC3 (configuration not stated)
TGI (HOP-62 NSCLC): > 100 µM | TGI (OVCAR-4 ovarian): 99.1 µM | TGI (HCT-15 colon): > 100 µM | TGI (DU-145 prostate): > 100 µM | TGI (UO-31 renal): 74 µM | TGI (MCF7 breast): 31.4 µM | TGI (A498 renal): 72.2 µM | TGI (HL-60(TB) leukemia): > 100 µM | TGI (MDA-MB-231 breast): 45 µM

CC(=O)N1N(c2ccc([N+](=O)[O-])cc2)C(=O)C1(C)C
TGI (HOP-62 NSCLC): 40.4 µM | TGI (OVCAR-4 ovarian): 35 µM | TGI (HCT-15 colon): 34.5 µM | TGI (DU-145 prostate): > 100 µM | TGI (UO-31 renal): 32.4 µM | TGI (SNB-19 CNS): > 100 µM | TGI (MCF7 breast): 42.5 µM | TGI (A498 renal): > 100 µM | TGI (OVCAR-5 ovarian): 44.3 µM | TGI (MDA-MB-231 breast): 45.7 µM

COC(=O)C1=C(C)NC(C)=C(C(=O)OC)C1c1cccc(NO)c1
TGI (HOP-62 NSCLC): > 100 µM | TGI (OVCAR-4 ovarian): 27.8 µM | TGI (HCT-15 colon): 41.4 µM | TGI (DU-145 prostate): > 100 µM | TGI (UO-31 renal): 23.6 µM | TGI (SNB-19 CNS): > 100 µM | TGI (MCF7 breast): 38.5 µM | TGI (A498 renal): > 100 µM | TGI (OVCAR-5 ovarian): 30.1 µM | TGI (MDA-MB-231 breast): 31.4 µM

CCOc1cc2c(cc1O)/C(=N/NS(=O)(=O)c1ccc(C)cc1)C[C@@H]1[C@@H]2CC[C@]2(C)[C@@H](O)CC[C@@H]12
GI50 (HOP-62 NSCLC): 5.14 µM | TGI (HOP-62 NSCLC): > 100 µM | TGI (OVCAR-4 ovarian): > 100 µM | TGI (HCT-15 colon): > 100 µM | GI50 (DU-145 prostate): 14.9 µM | TGI (DU-145 prostate): > 100 µM | TGI (UO-31 renal): > 100 µM | TGI (SNB-19 CNS): > 100 µM | TGI (MCF7 breast): > 100 µM | TGI (A498 renal): > 100 µM | TGI (OVCAR-5 ovarian): 46.4 µM | TGI (MDA-MB-231 breast): > 100 µM

C/C(=N\NC(=S)Nc1ccc(C)cc1)c1nc2ncccc2[nH]1
TGI (HOP-62 NSCLC): 39.2 µM | TGI (OVCAR-4 ovarian): 16.7 µM | TGI (HCT-15 colon): 19.4 µM | TGI (DU-145 prostate): 13.6 µM | TGI (UO-31 renal): 4.05 µM | TGI (SNB-19 CNS): > 100 µM | TGI (MCF7 breast): 13.5 µM | TGI (A498 renal): 23.4 µM | TGI (OVCAR-5 ovarian): 18.6 µM | TGI (MDA-MB-231 breast): > 100 µM
